Data on one substance can be found in patent US6355617B1, “Peptide derivatives” (Syngenta Limited, priority 1996, dated 2002).

Test [1] addresses T1, HLA-DR4Dw4 (Homo sapiens, UniProt P01903+P01911, A100K/A169T/F76Y/I96L/K127E/L162R/M171V/N62H/P40V/Q125Y/R42H/S133A/S149N/S66Y/V115G/V209L/W38E).
T1 construct: a cDNA encoding the β chain is cloned into the transfer vector pAcUW1; made in house; host or cells: Sf21 insect cells, double-recombinant baculovirus
Description: Test A: Purified HLA-DR peptide in vitro binding assay. The conditions noted are these: competition with biotin-FHA307-320, 48 hours incubation. The method, then:
Test A: Purified HLA-DR peptide in vitro binding assay. […]. At the end of the incubation period 100 μl of the incubate is transferred to Enzyme Linked ImmunoSorbant Assay (ELISA) plates (Nunc) previously coated with an anti-MHC antibody (L243-American Type Culture Collection (ATCC) HB55 as described in Lampson and Levy (1980) J. Immunol. 125, 293-299) at a concentration of 10 μg/ml for 1 hour at room temperature and blocked thereafter for 1 hour with 1% bovine serum albumin (BSA) in PBS and 0.05% Tween 20. […] The reaction is stopped by adding 2M sulphuric acid (10 μl per well) and the absorbance read at 450 nm to quantify the amount of peptide bound. The inhibitory activity-of peptides is obtained by plotting absorbance against concentration. […]
To create the double-recombinant baculovirus, a cDNA encoding the β chain is cloned into the transfer vector pAcUW1 [Weyer, U; Knight, S & Possee, R D (1990) J. Gen. […] Double-recombinant viruses are detected by spotting insect cells, infected with randomly picked viruses from the transfection, onto membranes and reacting them with a monoclonal antibody e.g. L243 which specifically recognises the HLA-DR heterodimer. Binding of the antibody to Sf21 insect cells is detected using standard flow cytometry techniques, readily available in the literature. […]

The test system of test [2] is BALB/C mice. Description: Test C: Peptide stimulated DTH (delayed type hypersensitivity) in BALB/C mice. In kind it is in vivo. The conditions noted are these: ovalbumin DTH footpad swelling, 3-day osmotic mini-pumps. As to the method: Test C: Peptide stimulated DTH (delayed type hypersensitivity) in BALB/C mice. […] Balb/c female mice (18-20 g), 5 per group, were immunised sub-cutaneously on the flank with 0.1 ml of an emulsion of ovalbumin (Sigma) (2 mg/ml in saline) mixed 1:1 (v/v) with complete Freunds adjurant (Sigma). Seven days later footpad thickness was determined using a dual caliper micrometer followed by a challenge in one hind footpad with a 30 μl sub-plantar injection of 1% heat-aggregated ovalbumin protein in saline. Twenty-four hours after antigen challenge, footpads were measured and the DTH response calculated as the percentage increase in footpad thickness in the injected footpad compared to contralateral control. Inhibitors were adminstered by 3-day osmotic mini-pumps (Alzet) implanted 24 hours prior to antigen challenge at doses ranging from 10 mg/kg/day to 0.1 μg/kg/day. The degree of inhibition was calculated by substracting the value for swelling of inhibitor treated footpads from that of the vehicle dosed controls, dividing by the control value and multiplying by 100%.

As to “Phv-Arg-Ala-IIb-Thr-Ala-Ala-Ala-Papa-NH2 [Example 1]”, the “concentration showing significant binding to HLA-DR4Dw4 in Test A” value in test [1] was at most 0.1 µM. Besides, the “dose at which active in Test C” value in test [2] was below 0.1 mg/kg/day.
